Laboratory results: patent US8686113B2 (priority 2009, dated 2014)
≈ marks a conversion by molar mass, not a printed value. Where two headings read alike, the source gives them in different places. Non-standard residues stand in square brackets, D forms with d. Residues, ends and D or L forms follow the SMILES beside them. No end group written: not given here. *: point of attachment. Hyp = O=C(O)[C@@H]1C[C@@H](O)CN1; Orn = NCCC[C@H](N)C(=O)O; NHPr = CCCN*

Legend:
E. coli BL21 A1 = assay type: cell-based, Escherichia coli; conditions: BL21, 20 h
Outline: (§1)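 Broth microdilution in 1% TSB with twofold peptide series, final 128 μg/mL to 62.5 ng/mL, against 5×10^6 bacteria/mL stock suspension added 1:1. Incubated 20 h at 37 °C, growth read by absorbance at 595 nm; MIC is the lowest concentration with no growth, determined in triplicate.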

M. luteus 10240 = assay: Growth inhibition assay (microdilution MIC); assay type: cell-based, Micrococcus luteus; conditions: 10240, 20 h
Outline: as §1

E. coli 045-849 SENTRY = tested on: E. coli 045-849 SENTRY
Experimental: (§2) The minimum inhibitory concentrations (MIC) of the antimicrobial peptides and peptide derivatives were determined in microdilution assays. These used a continuous peptide dilution in sterile flat-bottomed 96-well microtiter plates (polystyrene, Greiner Bio-One GmbH, Frickenhausen, Germany) and a total volume of 100 μL per well. The aqueous peptide or peptidomimetic solutions were diluted with 1% TSB water, to obtain a final concentration of 256 μg/mL. 50 μL of the peptide or peptidomimetic solution was pipetted into the first well of each series and stirred. From this solution, 50 μL was transferred to the second well, stirred and again 50 μL was transferred to the next well, and so on. A double dilution series is obtained, beginning at 256 μg/mL in the first well to 125 ng/mL in the twelfth well. The bacteria, e.g. E. coli BL21 A1, were cultured overnight at 37° C. in nutrient broth (NB, Carl Roth GmbH+Co. KG, Karlsruhe, Germany). 50 μL of a 5×10^6 bacteria/mL suspension in 1% TSB was added to each well of the microtiter plate and thus a final concentration of the peptides or peptidomimetics from 128 μg/mL (well 1) to 62.5 ng/mL (well 12) was established in each series. The plates were incubated at 37° C. for 20 h and then the absorption was measured at 595 nm with a TECAN microtiter plate spectrophotometer (Tecan Trading AG, Mannedorf, Switzerland). The MIC values of all peptides and peptidomimetics were determined in triplicate. Sterile water was used as negative control.
(§3) The tests were in this case carried out in Mueller-Hinton medium (¼ concentrated), which is equivalent to 1% TSB.

E. coli ATCC BAA-457 = conditions: ¼ Muller-Hinton medium
Experimental: as §2, §3

E. coli D31 J. Wilson = conditions: ¼ Muller-Hinton medium
Experimental: as §2, §3

K. pneumoniae 012-3131 = tested on: K. pneumoniae 012-3131
Experimental: as §2, §3

K. pneumoniae ATCC 27799 = conditions: ATCC 27799
Experimental: as §2, §3

[1] = tested on: K. pneumoniae K6 ATCC 700603; conditions: ATCC 700603
Experimental: as §2, §3

[2] = tested on: P. aeruginosa 10 J. Wilson
Experimental: as §2, §3

P. mirabilis ATCC 7002 = tested on: P. mirabilis ATCC 7002
Experimental: as §2, §3

P. vulgaris ATCC 6896 = tested on: P. vulgaris ATCC 6896
Experimental: as §2, §3

[3] = tested on: S. typhimurium ATCC 14028
Experimental: as §2, §3

[4] = tested on: S. typhimurium ATCC 700408
Experimental: as §2, §3

[5] = tested on: S. typhimurium s5 (J. Weiser); conditions: ¼ Muller-Hinton medium
Experimental: as §2, §3

[6] = 25% aqueous mouse serum, 37° C., 75 μg/mL peptide
Experimental: For this, the peptides and peptidomimetics were dissolved in water, mouse serum was added and the peptide concentration was adjusted to 75 μg/mL. While shaking continuously, the mixture was incubated at 37° C. After 0, 30, 60, 120, 240 and 360 minutes, in each case an aliquot was taken and mixed with 15% aqueous trichloroacetic acid (Carl Roth GmbH & Co. KG; Karlsruhe, Germany). After incubation on ice for a further 10 minutes, the precipitated serum proteins were centrifuged off (5 min, 13400 rpm, MiniSpin, Eppendorf AG, Hamburg, Germany). The supernatant was removed, neutralized with 1 mol/L aqueous sodium hydroxide solution (Fluke Chemie GmbH, Buchs, Switzerland) and stored at −20° C. until analysis.
The supernatants were analyzed by RP-HPLC with a linear acetonitrile gradient (Biosolve BV, Valkenswaard, The Netherlands) in the presence of 0.1% trifluoroacetic acid (TFA, UV-grade, Fluka Chemie GmbH, Buchs, Switzerland) as ion-pairing reagent. The fractions were co-crystallized with α-cyanohydroxycinnamic acid (Bruker Daltonik GmbH; Bremen, Germany) as matrix (5.3 mg/mL in 50% acetonitrile in 0.1% aqueous TFA) and were analyzed with a tandem mass spectrometer (MALDI-TOF/TOF-MS, 4700 Proteomics Analyzer; Applied Biosystems GmbH, Weiterstadt, Germany) in the positive-ion reflector mode. The proportion of intact peptides and their degradation products or metabolites could thus be identified and quantified at the individual time points. The control used was 25% aqueous mouse serum, which was analyzed in parallel for the same time intervals.

[7] = mouse, serum
[8] = tested on: Escherichia coli DSM 10233
Experimental: as §2
(§4) The peptides shown in Table 8 were investigated for their MIC against pathogenic bacteria such as E. coli DSM 10233, K. pneumoniae DSM 681 and P. aeruginosa DSM 3227.

[9] = tested on: Klebsiella pneumoniae DSM 681
Experimental: as §2, §4
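For Half-life in 25% mouse serum in this document: intact peptide left at successive time points measured by reversed-phase HPLC with an acetonitrile gradient in the supernatant after precipitation of serum proteins.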

Compound	MIC E. coli BL21 A1 (E. coli BL21 A1)	MIC M. luteus 10240 (M. luteus 10240)	MIC E. coli SEQ 102ATCC # BAA-4 57 (E. coli ATCC BAA-457)	MIC E. coli D31 J. Wilson (E. coli D31 J. Wilson)	MIC K. pneumoniae 012-3131 (K. pneumoniae 012-3131)	MIC K. pneumoniae ATCC 27799 (K. pneumoniae ATCC 27799)	MIC K. pneumoniae K6 ATCC 700603 [1]	Half-life in 25% mouse serum [6]	half-life [7]	also measured
CC[C@H](C)[C@H](NC(=O)[C@H](CCCNC(=N)N)NC(=O)[C@H](CCCNC(=N)N)NC(=O)[C@@H]1CCCN1C(=O)[C@@H]1CCCN1C(=O)[C@H](CCCNC(=N)N)NC(=O)[C@@H]1CCCN1C(=O)[C@H](CCCNC(=N)N)NC(=O)[C@@H]1C[C@@H](O)CN1C(=O)[C@H](CC(C)C)NC(=O)[C@H](Cc1ccc(O)cc1)NC(=O)[C@@H]1CCCN1C(=O)[C@@H]1CCCN1C(=O)[C@H](CCCCN)NC(=O)[C@H](CC(=O)O)NC(=O)[C@@H](N)C(C)C)C(=O)N[C@@H](Cc1ccc(O)cc1)C(=O)N[C@@H](CC(N)=O)C(=O)N[C@@H](CCCNC(=N)N)C(N)=O [compound 22] (H-VDKPPYL[Hyp]RPRPPRRIYNR-NH2)	8 µg/mL (≈ 3.33 µM)	4 µg/mL (≈ 1.66 µM)	4 µg/mL (≈ 1.66 µM)	2 µg/mL (≈ 0.831 µM)	4 µg/mL (≈ 1.66 µM)	16 µg/mL (≈ 6.65 µM)	8 µg/mL (≈ 3.33 µM)			MIC E. coli 045-849 SENTRY (E. coli 045-849 SENTRY; 045-849 SENTRY): 4 µg/mL (≈ 1.66 µM); MIC P. aeruginosa 10 J. Wilson [2]: 16 µg/mL (≈ 6.65 µM); MIC P. mirabilis ATCC 7002 (P. mirabilis ATCC 7002; ATCC 7002): 128 µg/mL (≈ 53.2 µM); MIC P. vulgaris ATCC 6896 (P. vulgaris ATCC 6896; ATCC 6896): 128 µg/mL (≈ 53.2 µM); MIC S. typhimurium ATCC 14028 [3]: 2 µg/mL (≈ 0.831 µM); MIC S. typhimurium ATCC 700408 [4]: 0.5 µg/mL (≈ 0.208 µM); MIC S. typhimurium s5 (J. Weiser) [5]: 8 µg/mL (≈ 3.33 µM)
CC[C@H](C)[C@H](NC(=O)[C@H](CCCNC(=N)N)NC(=O)[C@H](CCCNC(=N)N)NC(=O)[C@@H]1CCCN1C(=O)[C@@H]1CCCN1C(=O)[C@H](CCCNC(=N)N)NC(=O)[C@@H]1CCCN1C(=O)[C@H](CCCNC(=N)N)NC(=O)[C@@H]1CCCN1C(=O)[C@H](CC(C)C)NC(=O)[C@H](Cc1ccc(O)cc1)NC(=O)[C@@H]1CCCN1C(=O)[C@@H]1CCCN1C(=O)[C@H](CCCCN)NC(=O)[C@H](CC(=O)O)NC(=O)[C@@H](N)C(C)C)C(=O)N[C@@H](Cc1ccc(O)cc1)C(=O)N[C@@H](CC(N)=O)C(=O)N[C@@H](CCCN)C(N)=O [compound 50] (H-VDKPPYLPRPRPPRRIYN[Orn]-NH2)	8 µg/mL (≈ 3.41 µM)	16 µg/mL (≈ 6.81 µM)						2 h		
CCCNC(=O)[C@H](CCCNC(=N)N)NC(=O)[C@H](CC(N)=O)NC(=O)[C@H](Cc1ccc(O)cc1)NC(=O)[C@@H](NC(=O)[C@H](CCCNC(=N)N)NC(=O)[C@H](CCCNC(=N)N)NC(=O)[C@@H]1CCCN1C(=O)[C@@H]1CCCN1C(=O)[C@H](CCCNC(=N)N)NC(=O)[C@@H]1CCCN1C(=O)[C@H](CCCNC(=N)N)NC(=O)[C@@H]1CCCN1C(=O)[C@H](CC(C)C)NC(=O)[C@H](Cc1ccc(O)cc1)NC(=O)[C@@H]1CCCN1C(=O)[C@@H]1CCCN1C(=O)[C@H](CCCCN)NC(=O)[C@H](CC(=O)O)NC(=O)[C@@H](N)C(C)C)[C@@H](C)CC [compound 58] (H-VDKPPYLPRPRPPRRIYNR-NHPr)	4 µg/mL (≈ 1.64 µM)	8 µg/mL (≈ 3.29 µM)						>2 h	1 h	
CC[C@H](C)[C@H](NC(=O)[C@H](CCCN)NC(=O)[C@H](CCCNC(=N)N)NC(=O)[C@@H]1CCCN1C(=O)[C@@H]1CCCN1C(=O)[C@H](CCCNC(=N)N)NC(=O)[C@@H]1CCCN1C(=O)[C@H](CCCNC(=N)N)NC(=O)[C@@H]1CCCN1C(=O)[C@H](CC(C)C)NC(=O)[C@H](Cc1ccc(O)cc1)NC(=O)[C@@H]1CCCN1C(=O)[C@@H]1CCCN1C(=O)[C@H](CCCCN)NC(=O)[C@H](CC(=O)O)NC(=O)[C@@H](N)C(C)C)C(=O)N[C@@H](Cc1ccc(O)cc1)C(=O)N[C@@H](CC(N)=O)C(=O)N[C@@H](CCCNC(=N)N)C(N)=O [compound 61] (H-VDKPPYLPRPRPPR[Orn]IYNR-NH2)	8 µg/mL (≈ 3.41 µM)	16 µg/mL (≈ 6.81 µM)						1.5 h	1.08 h	
CCCNC(=O)[C@H](CCCNC(=N)N)NC(=O)[C@H](CC(N)=O)NC(=O)[C@H](Cc1ccc(O)cc1)NC(=O)[C@@H](NC(=O)[C@H](CCCN)NC(=O)[C@H](CCCNC(=N)N)NC(=O)[C@@H]1CCCN1C(=O)[C@@H]1CCCN1C(=O)[C@H](CCCNC(=N)N)NC(=O)[C@@H]1CCCN1C(=O)[C@H](CCCNC(=N)N)NC(=O)[C@@H]1CCCN1C(=O)[C@H](CC(C)C)NC(=O)[C@H](Cc1ccc(O)cc1)NC(=O)[C@@H]1CCCN1C(=O)[C@@H]1CCCN1C(=O)[C@H](CCCCN)NC(=O)[C@H](CC(=O)O)NC(=O)[C@@H](N)C(C)C)[C@@H](C)CC [compound 71] (H-VDKPPYLPRPRPPR[Orn]IYNR-NHPr)		8 µg/mL (≈ 3.35 µM)						>6 h	1.75 h	
CC[C@H](C)[C@H](NC(=O)[C@@H](CCCNC(=N)N)NC(=O)[C@H](CCCNC(=N)N)NC(=O)[C@@H]1CCCN1C(=O)[C@@H]1CCCN1C(=O)[C@H](CCCNC(=N)N)NC(=O)[C@@H]1CCCN1C(=O)[C@H](CCCNC(=N)N)NC(=O)[C@@H]1CCCN1C(=O)[C@H](CC(C)C)NC(=O)[C@H](Cc1ccc(O)cc1)NC(=O)[C@@H]1CCCN1C(=O)[C@@H]1CCCN1C(=O)[C@H](CCCCN)NC(=O)[C@H](CC(=O)O)NC(=O)[C@@H](N)C(C)C)C(=O)N[C@@H](Cc1ccc(O)cc1)C(=O)N[C@@H](CC(N)=O)C(=O)N[C@@H](CCCNC(=N)N)C(N)=O [compound 111] (H-VDKPPYLPRPRPPR[dR]IYNR-NH2)	4 µg/mL (≈ 1.67 µM)	4 µg/mL (≈ 1.67 µM)								MIC E. coli DSM 10233 [8]: 4 µg/mL (≈ 1.67 µM); MIC K. pneumoniae DSM 681 [9]: 4 µg/mL (≈ 1.67 µM)
CC[C@@H](C)[C@@H](NC(=O)[C@@H](Cc1ccc(O)cc1)NC(=O)[C@@H](CC(N)=O)NC(=O)[C@H](N)CCCNC(=N)N)C(=O)N[C@H](CCCNC(=N)N)C(=O)N[C@H](CCCNC(=N)N)C(=O)N1CCC[C@@H]1C(=O)N1CCC[C@@H]1C(=O)N[C@H](CCCNC(=N)N)C(=O)N1CCC[C@@H]1C(=O)N[C@H](CCCNC(=N)N)C(=O)N1CCC[C@@H]1C(=O)N[C@H](CC(C)C)C(=O)N[C@H](Cc1ccc(O)cc1)C(=O)N1CCC[C@@H]1C(=O)N1CCC[C@@H]1C(=O)N[C@H](CCCCN)C(=O)N[C@H](CC(=O)O)C(=O)N[C@@H](C(N)=O)C(C)C [compound 117] (H-[dR][dN][dY][dI][dR][dR][dP][dP][dR][dP][dR][dP][dL][dY][dP][dP][dK][dD][dV]-NH2)	64 µg/mL (≈ 26.8 µM)	32 µg/mL (≈ 13.4 µM)								MIC E. coli DSM 10233 [8]: >32 µg/mL; MIC K. pneumoniae DSM 681 [9]: >32 µg/mL
H-VDKPPYLPRPRPPRRIYNNR-NH2 [compound 15]	8 µg/mL	8 µg/mL	32 µg/mL	16 µg/mL	16 µg/mL	64 µg/mL	32 µg/mL			MIC E. coli 045-849 SENTRY (E. coli 045-849 SENTRY; 045-849 SENTRY): 4 µg/mL; MIC P. aeruginosa 10 J. Wilson [2]: 16 µg/mL; MIC P. mirabilis ATCC 7002 (P. mirabilis ATCC 7002; ¼ Muller-Hinton medium): >; MIC P. vulgaris ATCC 6896 (P. vulgaris ATCC 6896; ¼ Muller-Hinton medium): >; MIC S. typhimurium ATCC 14028 [3]: 4 µg/mL; MIC S. typhimurium ATCC 700408 [4]: 0.5 µg/mL; MIC S. typhimurium s5 (J. Weiser) [5]: 8 µg/mL
VDKPPYLPRPRPPRRIYNNR [compound 14]	8 µg/mL	16 µg/mL	64 µg/mL	32 µg/mL	32 µg/mL	128 µg/mL	64 µg/mL	<0.5 h		MIC E. coli 045-849 SENTRY (E. coli 045-849 SENTRY; ¼ Muller-Hinton medium): 4 µg/mL
VDKPPYLPRPRPPRRIYNR [compound 19]	32 µg/mL	64 µg/mL						<0.5 h		
